Laboratory results reported in US5559110A, “Pharmaceutical formulations of cyclic urea type compounds” (The DuPont Merck Pharmaceutical Company, priority 1994, dated 1996).
≈ marks a conversion by molar mass, not a printed value.

Assays:
physchem = format: physicochemical
Text: The cyclic urea antiviral agents of this invention are generally poorly water-soluble. Poor water solubility could be related to low oral bioavailability and dose-related bioavailability. One effect of the formulation ingredients may be to alter water solubility. Water solubility in the presence of dilute concentrations of the formulation ingredients could then be related to oral bioavailability. Dilute formulation ingredients could mimic the dilution of an administered dosage form upon reaching the aqueous environment within the gastrointestinal tract. Aqueous solubility studies of cyclic urea antiviral agents were performed in the presence of dilute concentrations of possible formulation ingredients in this Example 4.
Specifically, aqueous solutions were prepared containing 4% (w/v) of the formulation ingredients listed. Excess solid compound [4R-(4α, 5α, 6β, 7β)]-hexahydro-5,6-bis (hydroxy)-1,3-bis ([(4-hydroxymethyl)phenyl]methyl)-4,7-bis (phenylmethyl)-2H-1,3-diazepin-2-one (Ex. No. 5U) was added and the samples were mixed 24 hours. Samples were filtered, and Ex. No. 5U solubility was determined by measuring filtrate drug concentrations using HPLC.

[1] = format: physicochemical
Protocol: Vehicles were evaluated for their capacity to solubilize a cyclic urea compound. Several methods were used. In Method A, vehicles were heated to 70°-80° C. and weighed amounts of the cyclic urea compound were added incrementally until the compound no longer dissolved. This is a visual estimation of solubility. In Method B, vehicles were prepared as in Method A, then cooled to room temperature, and then reheated to 50° C. Suspensions were filtered at 50° C. and compound concentrations in the liltrate filtrate were measured using a high performance liquid chromatographic (HPLC) method, providing the results shown under Method B.
Specifically, the vehicles of Table 1 were prepared and evaluated for solubility of a cyclic urea antiviral agent. The agent for Example 1 was [4R--(4a, 5a, 6β, 7β)]-hexahydro-5,6-bis(hydroxy)-1,3-bis([(4-hydroxymethyl)phenyl]methyl)-4,7-bis(phenylmethyl)-2H-1,3-diazepin-2-one. This compound corresponds to Ex. No. 5U in the above-cited PCT Application WO 93/07128, and is sometimes hereinafter referred to as Ex. No. 5U. In Table 1, all percentages are by weight.

[2] = in vivo; cited from earlier work

solubility at 24 h (physchem; 4% peg-60 hydrogenated castor oil, organic solvent or mixture) [µg/mL]	solubility at 24 h (physchem; water) [µg/mL]	solubility at 24 h (physchem; water with 4% peg-8, organic solvent or mixture) [µg/mL]	solubility at 24 h (physchem; water, 4% gelucire 44/14) [µg/mL]	solubility at 24 h (physchem; water, 4% glycerol dilaurate, organic solvent or mixture) [µg/mL]	solubility at 24 h (physchem; water, 4% labrasol) [µg/mL]	solubility at 24 h (physchem; water, 4% peg-4 laurate, organic solvent or mixture) [µg/mL]	solubility at 24 h (physchem; water, 4% peg-8 laurate, organic solvent or mixture) [µg/mL]	solubility at 24 h (physchem; water, 4% peg-8 stearate, organic solvent or mixture) [µg/mL]	solubility at 24 h (physchem; water, 4% peg-40 stearate, organic solvent or mixture) [µg/mL]	solubility in vehicle (in words) [1]	Compound	oral bioavailability (in words) [2]
715 (≈ 1260 µM)	5 (≈ 8.82 µM)	12 (≈ 21.2 µM)	758 (≈ 1340 µM)	11 (≈ 19.4 µM)	410 (≈ 723 µM)	81 (≈ 143 µM)	283 (≈ 499 µM)	44 (≈ 77.6 µM)	718 (≈ 1270 µM)	increased solubility	O=C1N(Cc2ccc(CO)cc2)[C@H](Cc2ccccc2)[C@H](O)[C@@H](O)[C@@H](Cc2ccccc2)N1Cc1ccc(CO)cc1 [Ex. No. 5U, [4R-(4α, 5α, 6β, 7β)]-hexahydro-5,6-bis(hydroxy)-1,3-bis([(4-hydroxymethyl)phenyl]methyl)-4,7-bis(phenylmethyl)-2H-1,3-diazepin-2-one]	
											COC1=CC(=O)C[C@@H](C)[C@]12Oc1c(Cl)c(OC)cc(OC)c1C2=O [griseofulvin]	increased
